Experimental data: patent US9560869B2, “Food composition comprising desferrichrysin” (NESTEC S.A., priority 2013, dated 2017)

How the values were obtained:
[1] = Colour change of fortified yoghurt during storage at 37° C. for 120 days (CIELAB); type: physicochemical; conditions: for colour change over time (in words): stored at 37° C. for 120 days
Experimental: (§1) Commercial yoghurt, Nestlé Jogolino™ Strawberry/Banana yoghurt containing 15% banana puree and 10% strawberry puree was iron fortified by the addition of different iron salts to 5 kg yoghurt as reported in the table below. The amounts were chosen to provide approximately 0.8 mg iron per 100 g yoghurt. […] Colour measurements were performed in 1×1 cm polystyrene cuvettes using an X-Rite ColorEye 7000A colorimeter. The colorimeter was set up with a D65 light source, 10 degree observer angle and with specular component included. The colour difference between the yoghurt with no iron salts and the iron fortified yoghurt was measured for each iron salt and expressed as ΔEab* using the CIELAB colour scale. 70 g samples of the fortified yoghurt samples described above were placed in 100 mL glass jars and stored at 37° C. for 120 days. Colour measurements were performed at a range of time intervals.

[2] = Colour difference of iron fortified strawberry/banana yoghurt vs yoghurt with no iron salts after flash pasteurization (CIELAB); type: physicochemical
Experimental: as §1, with “scale.” for “scale. 70 g samples of the fortified yoghurt samples described above were placed in 100 mL glass jars and stored at 37° C. for 120 days. Colour measurements were performed at a range of time intervals.”

[3] = in vivo; cited from earlier work

O=S(=O)([O-])[O-].[Fe+2] [FeSO4 × H20, Ferrous sulphate, reference compound]
colour change over time (in words) [1]: much greater colour changes

Ferrichrysin
colour compared with yoghurt with no added iron (in words) ([2]; after flash pasteurization at 105° C. for 2 minutes): closest colour to the yoghurt with no added iron | ΔEab* ([2]; colour difference vs yoghurt with no iron salts, approx. 0.8 mg iron per 100 g yoghurt, flash pasteurized at 105° C. for 2 minutes): 1.57 | colour change over time (in words) [1]: smaller than the yoghurts fortified by the other iron salts | ΔEab* day 7 ([1]; stored at 37° C., vs colour immediately after pasteurization, day 7): 1.03 | ΔEab* day 30 ([1]; stored at 37° C., vs colour immediately after pasteurization, day 30): 1.32 | ΔEab* day 60 ([1]; stored at 37° C., vs colour immediately after pasteurization, day 60): 3.77 | ΔEab* day 120 ([1]; stored at 37° C., vs colour immediately after pasteurization, day 120): 6.46 | bioavailability of iron (in words) [3]: good source of bioavailable iron
